Three compounds from ChEMBL document CHEMBL4138047, “Recent advancements in the discovery of protein-protein interaction inhibitors of replication protein A” (Medchemcomm, 2017) can be followed below.

The target of data set [1] is T1, Replication protein A 70 kDa DNA-binding subunit (Homo sapiens, UniProt P27694). Briefly: Binding affinity to RPA70 (unknown origin) by FITC-labeled probe based fluorescence polarization anisotropy.
Data set [2] can be described thus: Protein binding in human plasma at 1 ug/ml after 4 hrs by LC-MS/MS method. Format: ADME, cell-free. The note with it: read-out: PPB (converted).
The nature of data set [3]: Apparent permeability in human Caco2 cells at 5 uM incubated for 120 mins by LC-MS/MS method. The note with it: Caco-2. Type of data set: ADME, cell-based. Background: Caco-2 cells form a polarised layer with tight junctions and transporters.
A short description of data set [4]: Binding affinity to human recombinant RPA70 R41E/R43E mutant expressed in Escherichia coli BL21 using FPA by tryptophan fluorescence quenching assay.
The target in data set [5] is T1, Replication protein A 70 kDa DNA-binding subunit. Briefly: Binding affinity to human recombinant RPA70 expressed in Escherichia coli BL21 using FPA by tryptophan fluorescence quenching assay.
For data set [6] the target is unchanged. Briefly: Inhibition of GST-tagged X-rhodamine-labelled p53TAD2 binding to human recombinant RPA70 expressed in Escherichia coli BL21 by fluorescence anisotropy competition assay. A general note: Polarisation of emitted light reports the rotation of a fluorescent probe.

T1 sequence (P27694 whole entry): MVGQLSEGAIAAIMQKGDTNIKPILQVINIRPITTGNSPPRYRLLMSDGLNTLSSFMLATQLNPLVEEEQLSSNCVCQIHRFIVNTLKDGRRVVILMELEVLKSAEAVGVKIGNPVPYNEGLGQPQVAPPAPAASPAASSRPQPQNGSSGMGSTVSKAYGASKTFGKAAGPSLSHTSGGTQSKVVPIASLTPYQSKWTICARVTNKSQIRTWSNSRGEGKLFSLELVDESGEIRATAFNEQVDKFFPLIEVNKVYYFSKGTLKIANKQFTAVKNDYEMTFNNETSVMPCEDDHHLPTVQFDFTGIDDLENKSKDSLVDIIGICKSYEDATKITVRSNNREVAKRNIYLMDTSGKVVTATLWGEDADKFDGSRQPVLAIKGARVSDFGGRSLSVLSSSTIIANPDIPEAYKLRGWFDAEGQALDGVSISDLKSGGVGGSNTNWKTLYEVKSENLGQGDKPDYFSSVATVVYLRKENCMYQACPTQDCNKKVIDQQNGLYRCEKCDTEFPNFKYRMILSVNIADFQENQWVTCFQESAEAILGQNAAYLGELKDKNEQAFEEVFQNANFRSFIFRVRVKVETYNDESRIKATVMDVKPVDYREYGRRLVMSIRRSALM

In general, Kd refers to the equilibrium constant for the complex coming apart. Regarding `Cc1ccc(C(=O)Nc2ccccc2C(=O)O)cc1S(=O)(=O)Nc1ccc(Br)cc1`, binding in data set [1] was characterised by a dissociation constant (Kd) of 30 µM.
In general, Papp refers to a coefficient for how fast a substance crosses the barrier. Consider `Cc1ccc(C(=O)Nc2cc(Br)ccc2C(=O)O)cc1S(=O)(=O)Nc1ccc(Cl)c(Cl)c1`, for which the fraction unbound at 4 h, 1 ug/ml in data set [2] is 0.002. In data set [3], the Papp at 2 h, 5 µM is 29.2 ×10⁻⁶ cm/s. This compound also registered a Kd in data set [1] of 0.81 µM.
As to `CC(C)C1=C[C@@]23CC[C@@H]4[C@](C)(CCC[C@@]4(C)C(=O)O)[C@H]2C[C@@H]1[C@@H](C(=O)O)[C@@H]3C(=O)O`, the figures for the Kd in data set [4], in data set [5] and in data set [6] were 230 µM, 29 µM and 9 µM, respectively.
